Reference: patent publication US20070032529A1, “Pyrazole compounds and their use as antidiabetes agents” (Japan Tobacco Inc., priority 2005, published 2007)

Each compound was assayed against T1, recombinant human liver glycogen phosphorylase (Homo sapiens, UniProt P06737) (assay: Measuring liver glycogen phosphorylase activity (forward reaction system, NADPH absorbance at 340 nm)). Settings: compound concentration 300 nmol (in parentheses); read-out: inhibition rate (%) at a certain concentration.
T1 construct: made in house; host or cells: Sf9 insect cells (crude homogenate, diluted, used as the enzyme solution)
T1 sequence (P06737 1-847): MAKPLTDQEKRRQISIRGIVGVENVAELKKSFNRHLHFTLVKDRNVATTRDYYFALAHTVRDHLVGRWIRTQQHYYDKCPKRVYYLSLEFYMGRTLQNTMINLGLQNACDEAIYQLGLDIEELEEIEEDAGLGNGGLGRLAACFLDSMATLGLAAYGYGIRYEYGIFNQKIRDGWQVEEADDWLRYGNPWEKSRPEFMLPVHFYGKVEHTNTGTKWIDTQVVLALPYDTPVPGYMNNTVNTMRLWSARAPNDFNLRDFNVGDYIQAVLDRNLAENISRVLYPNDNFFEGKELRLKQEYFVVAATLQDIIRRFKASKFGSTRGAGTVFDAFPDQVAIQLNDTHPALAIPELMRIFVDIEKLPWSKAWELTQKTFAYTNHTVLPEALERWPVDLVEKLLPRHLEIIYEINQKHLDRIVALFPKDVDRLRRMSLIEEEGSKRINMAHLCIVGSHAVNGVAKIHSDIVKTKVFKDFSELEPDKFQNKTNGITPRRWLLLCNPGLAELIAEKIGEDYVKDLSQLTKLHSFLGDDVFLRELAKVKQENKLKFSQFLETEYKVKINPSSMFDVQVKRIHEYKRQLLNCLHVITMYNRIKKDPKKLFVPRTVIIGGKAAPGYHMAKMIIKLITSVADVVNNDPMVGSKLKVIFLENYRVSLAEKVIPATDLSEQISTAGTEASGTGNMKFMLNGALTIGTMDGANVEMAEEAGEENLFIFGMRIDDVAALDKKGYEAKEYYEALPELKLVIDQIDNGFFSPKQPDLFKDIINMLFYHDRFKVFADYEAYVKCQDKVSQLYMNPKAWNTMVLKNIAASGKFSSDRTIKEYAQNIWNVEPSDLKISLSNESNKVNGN
Format: biochemical
Protocol: [Pharmacological Test] 1. Exemplary Test (1) Method for Measuring Liver Glycogen Phosphorylase Activity
The measurement of glycogen phosphorylase activity was carried out by a method using the forward reaction system.
The measurement of glycogen phosphorylase activity using the forward reaction system was carried out as follows. Glucose-1-phosphate prepared from glycogen by glycogen phosphorylase was converted into glucono-δ-lactone 6-phosphate through transphosphorylation and dehydrogenation using phosphoglucomutase and glucose-6-phosphate dehydrogenase (G6PDH). NADPH generated from NADP during the dehydrogenation by G6PDH was detected.
A homogenate of the Sf9 cells which expressed exogenously recombinant human liver glycogen phosphorylase was diluted with 100 mmol/LBES buffer solution (pH 6.8, containing 2 mmol/L EDTA) and the dilution was used as the enzyme solution of human liver glycogen phosphorylase. As the substrate, a phosphate buffer (containing 16 mmol/L KH2PO4, 24 mmol/L Na2HPO4) was used. A mixture of 8 U/mL phosphoglucomutase and 60 U/mL G6PDH was prepared in BES buffer solution. Buffer solution (containing 1.4 mmol/L NADP, 30 mmol/L MgCl2, 8 μmol/L glucose-1,6-diphosphate, 8 mg/mL glycogen, 40 mmol/LBES, 0.8 mmol/L EDTA) for reaction and a glucose solution (containing 75 mmol/L glucose, 100 mmol/LBES, 2 mmol/L EDTA) were prepared individually. The test compound was dissolved in 1% DMSO solution.
The enzymatic reaction was begun by adding 20 μL of the recombinant human liver glycogen phosphorylase solution and 20 μL of the mixture of phosphoglucomutase and G6PDH to the mixture of 20 μL of the glucose solution, 20 μL of the substrate, 100 μL of the buffer solution for reaction and 20 μL of the test compound solution. As control, 1% DMSO solution was added instead of the test compound. The mixture without the substrate was used as blank. The absorbance at 340 nm was measured immediately after the reaction started. The absorbance at 340 nm was measured again after reacting at room temperature for 75 minutes. The enzymatic activity is a value obtained by subtracting the blank variation in absorbance over 75 minutes from the variation in absorbance over 75 minutes.
The inhibition rate (%) of the test compound was calculated by the expression “(1-enzymatic activity of test compound/enzymatic activity of control)×100.”
A linear equation was determined from the two concentration points with the 50% inhibition rate therebetween, and the IC50 value was calculated from the concentration at the intersection of the line with the 50% inhibition rate.
“IC50” in the tables indicates the above-described enzyme inhibitory activity with respect to liver glycogen phosphorylase, and the activity to inhibit liver glycogen phosphorylase was represented as ++ when the IC50 value (nmol/L) was less than 100 nmol/L, as + when the IC50 value was between 100 nmol/L and 300 nmol/L. When IC50 is 300 nmol/L or more, an inhibition rate (%) at a certain concentration of the compound (I) of the present invention is shown in Tables. For example, when the inhibition rate is 20% at a concentration of 300 nmol, the rate is described as 20% (300).

Inhibition at 0.3 µM, 6.1%:
CN1CCC(N(C)C(=O)c2cc(NC(=O)c3cc(F)c(F)cc3Cl)[nH]n2)CC1 [Example 1-83]

Inhibition at 0.3 µM, 23.3%:
O=C(NC1CCCCC1)c1cc(NC(=O)c2cc(F)c(F)cc2Cl)[nH]n1 [Example 1-79]

Same assay, conditions: compound concentration 1000 nmol (in parentheses); read-out: inhibition rate (%) at a certain concentration

Inhibition at 1 µM, 43.8%:
O=C(Nc1cc(C(=O)N(CCO)c2ccccc2)n[nH]1)c1cc(F)c(F)cc1Cl [Example 1-77]

Same assay, conditions: enzyme inhibitory activity with respect to liver glycogen phosphorylase; class symbols

IC50, 100 to 300 nM:
COCCN(C)C(=O)c1cc(NC(=O)c2cc(F)c(F)cc2Cl)[nH]n1 [Example 1-6]
CCN(CCOC)C(=O)c1cc(NC(=O)c2cc(F)c(F)cc2Cl)[nH]n1 [Example 1-7]
CN(C)c1ccccc1CNC(=O)c1cc(NC(=O)c2cc(F)c(F)cc2Cl)[nH]n1 [Example 1-10]
CCCN(C(=O)c1cc(NC(=O)c2cc(F)c(F)cc2Cl)[nH]n1)C1CCC(C(=O)OCC)CC1 (stereo not shown) [Example 1-11]
O=C(Nc1cc(C(=O)N(Cc2ccccc2)Cc2ccccc2)n[nH]1)c1cc(F)c(F)cc1Cl [Example 1-74]

IC50, < 100 nM:
O=C(NCc1cccnc1)c1cc(NC(=O)c2cc(F)c(F)cc2Cl)[nH]n1 [Example 1-1, 5-(2-chloro-4,5-difluoro-benzoylamino)-1H-pyrazole-3-carboxylic acid (pyridin-3-ylmethyl)-amide]
Cc1nc(C)c(CNC(=O)c2cc(NC(=O)c3cc(F)c(F)cc3Cl)[nH]n2)o1 [Example 1-2-2, 5-(2-chloro-4,5-difluoro-benzoylamino)-1H-pyrazole-3-carboxylic acid (2,4-dimethyl-oxazol-5-ylmethyl)-amide p-toluenesulfonate]
CCN(CC)C(=O)c1cc(NC(=O)c2cc(F)c(F)cc2Cl)[nH]n1 [Example 1-4]
CCN(Cc1ccncc1)C(=O)c1cc(NC(=O)c2cc(F)c(F)cc2Cl)[nH]n1 [Example 1-5]
O=C(NCc1ccccc1F)c1cc(NC(=O)c2cc(F)c(F)cc2Cl)[nH]n1 [Example 1-8]
O=C(NCc1cccc(F)c1)c1cc(NC(=O)c2cc(F)c(F)cc2Cl)[nH]n1 [Example 1-9]
COc1cccc(CNC(=O)c2cc(NC(=O)c3cc(F)c(F)cc3Cl)[nH]n2)c1OC [Example 1-13]
COc1ccc(CNC(=O)c2cc(NC(=O)c3cc(F)c(F)cc3Cl)[nH]n2)c(OC)c1 [Example 1-14]
COc1cc(CNC(=O)c2cc(NC(=O)c3cc(F)c(F)cc3Cl)[nH]n2)cc(OC)c1 [Example 1-16]
COc1ccc(CNC(=O)c2cc(NC(=O)c3cc(F)c(F)cc3Cl)[nH]n2)cc1OC [Example 1-17]
O=C(NCc1cc(F)ccc1F)c1cc(NC(=O)c2cc(F)c(F)cc2Cl)[nH]n1 [Example 1-20]
O=C(NCc1ccc(F)c(F)c1)c1cc(NC(=O)c2cc(F)c(F)cc2Cl)[nH]n1 [Example 1-22]
O=C(NCc1cc(F)cc(F)c1)c1cc(NC(=O)c2cc(F)c(F)cc2Cl)[nH]n1 [Example 1-23]
O=C(NCc1ncccc1C(F)(F)F)c1cc(NC(=O)c2cc(F)c(F)cc2Cl)[nH]n1 [Example 1-27]
O=C(NCc1cccc(C(F)(F)F)c1)c1cc(NC(=O)c2cc(F)c(F)cc2Cl)[nH]n1 [Example 1-28]
O=C(NCc1ccc(C(F)(F)F)cc1)c1cc(NC(=O)c2cc(F)c(F)cc2Cl)[nH]n1 [Example 1-29]
CC(C)(C)c1ccc(CNC(=O)c2cc(NC(=O)c3cc(F)c(F)cc3Cl)[nH]n2)cc1 [Example 1-30]
O=C(NCc1cccnc1OCC(F)(F)F)c1cc(NC(=O)c2cc(F)c(F)cc2Cl)[nH]n1 [Example 1-32]
CN(C)CCNC(=O)c1ccc(CNC(=O)c2cc(NC(=O)c3cc(F)c(F)cc3Cl)[nH]n2)cc1 [Example 1-33]
CCc1ccc(CNC(=O)c2cc(NC(=O)c3cc(F)c(F)cc3Cl)[nH]n2)cc1 [Example 1-34]
CC(C)c1ccc(CNC(=O)c2cc(NC(=O)c3cc(F)c(F)cc3Cl)[nH]n2)cc1 [Example 1-35]
O=C(NCc1c(F)cccc1Cl)c1cc(NC(=O)c2cc(F)c(F)cc2Cl)[nH]n1 [Example 1-36]
COC(=O)CNC(=O)c1ccc(CNC(=O)c2cc(NC(=O)c3cc(F)c(F)cc3Cl)[nH]n2)cc1 [Example 1-43]
COC(=O)CCNC(=O)c1ccc(CNC(=O)c2cc(NC(=O)c3cc(F)c(F)cc3Cl)[nH]n2)cc1 [Example 1-44]
Cc1nc(CNC(=O)c2cc(NC(=O)c3cc(F)c(F)cc3Cl)[nH]n2)cs1 [Example 1-45]
CC(=O)OCCN(CCNC(=O)c1ccc(CNC(=O)c2cc(NC(=O)c3cc(F)c(F)cc3Cl)[nH]n2)cc1)CCOC(C)=O [Example 1-47]
O=C(NCCO)c1ccc(CNC(=O)c2cc(NC(=O)c3cc(F)c(F)cc3Cl)[nH]n2)cc1 [Example 1-48]
CC(=O)OCCN(CCO)CCNC(=O)c1ccc(CNC(=O)c2cc(NC(=O)c3cc(F)c(F)cc3Cl)[nH]n2)cc1 [Example 1-49]
O=C(NCc1nccs1)c1cc(NC(=O)c2cc(F)c(F)cc2Cl)[nH]n1 [Example 1-51]
Cc1nc(CNC(=O)c2cc(NC(=O)c3cc(F)c(F)cc3Cl)[nH]n2)c(C)s1 [Example 1-53]
O=C(NCc1csc(N2CCOCC2)n1)c1cc(NC(=O)c2cc(F)c(F)cc2Cl)[nH]n1 [Example 1-54]
Cc1nn(C)c(C)c1CNC(=O)c1cc(NC(=O)c2cc(F)c(F)cc2Cl)[nH]n1 [Example 1-55]
CN(C)c1nc(CNC(=O)c2cc(NC(=O)c3cc(F)c(F)cc3Cl)[nH]n2)cs1 [Example 1-57]
Cn1cccc1CNC(=O)c1cc(NC(=O)c2cc(F)c(F)cc2Cl)[nH]n1 [Example 1-58]
CC(C)(C)c1cnc(CNC(=O)c2cc(NC(=O)c3cc(F)c(F)cc3Cl)[nH]n2)s1 [Example 1-60]
Cc1nn(-c2ccccc2)nc1CNC(=O)c1cc(NC(=O)c2cc(F)c(F)cc2Cl)[nH]n1 [Example 1-61]
CC(C)(C)OC(=O)NCc1ccnc(CNC(=O)c2cc(NC(=O)c3cc(F)c(F)cc3Cl)[nH]n2)c1 [Example 1-62]
Nc1ccccc1CNC(=O)c1cc(NC(=O)c2cc(F)c(F)cc2Cl)[nH]n1 [Example 1-65]
N#CC(NC(=O)c1cc(NC(=O)c2cc(F)c(F)cc2Cl)[nH]n1)c1ccccc1 (stereo not shown) [Example 1-75]
O=C(NCC1CCCCC1)c1cc(NC(=O)c2cc(F)c(F)cc2Cl)[nH]n1 [Example 1-76]
CCCCN(Cc1ccccc1)C(=O)c1cc(NC(=O)c2cc(F)c(F)cc2Cl)[nH]n1 [Example 1-85]
